Measured values taken from patent USRE48687E1, “Pyridinylaminopyrimidine derivatives, preparation process and use thereof” (Shanghai Allist Pharmaceuticals Co., Ltd., priority 2014, dated 2021).

What was measured:
Format in all cases: cell-based
Settings in all cases: SRB staining
[1] = system: human lung cancer cell (HCC827, EGFR Exon 19 deletion activating mutation); assay: Proliferation inhibition (SRB) on human lung cancer cell HCC827
Text: (§1) The pharmacodynamic action of the compound of the present invention in terms of inhibiting the proliferation of cancer cells may be assayed by conventional methods. […] Inhibition ratio (%)=[(blank control OD−inhibitor OD)/blank control OD]×100%
(§2) Blank control OD: the OD value of the well of normally growed cells without the action of a drug.
(§3) Inhibitor OD: the OD value of the well of cells with the action of the added compounds to be screened.
(§4) The median inhibitory concentration (IC50) value is obtained by the software GraphPad Prism 5.0 by the 4-parameter logistic curve fit calculation. Each experiment is repeated three times, and the average IC50 value for three experiments is used as the final index for the inhibitory ability.
(§5) Cells in the logarithmic phase were inoculated to 96-well culture plates (cell density: 5000/well, cell suspension: 180 μl/well), and cultured at 37° C. under 5% CO2 for 24 hours. After the culturing, the cells adhered to the well walls. Each of compounds was dissolved in DMSO in advance to formulate a […] stock solution. Upon testing, the stock solution was diluted with complete medium to 10 times the target concentration in another 96-cell plate. And then the compound was added at 20 μl/cell in the 96-well plate in which the cells were inoculated, i.e. the target concentration could be reached. The well for each concentration was triplicated, and the blank control was established. Cells continued to be cultured at 37° C. under 5% CO2 for 72 hours. After the termination of culturing, 50 μl pre-cooled (4° C.) 50% trichloroacetic acid, i.e., TCA was added to each of wells (final concentration=10%), and was placed at 4° C. for 1 hour to fix the cells. The resulting matter was washed with purified water for at least 5 times, and dried naturally in air or at 60° C. in an oven. 4 mg/ml Sulforhodamine B (SRB) solution prepared by 1% glacial acetic acid/purified water was added at 100 μl/well to each well so as to stain for 1 hour at room temperature. The supernatant was discarded. The residue was washed with 1% acetic acid for at least 5 times to remove the non-specifically binding, and dried for use. To each well was added 150 μl of 10 mM Tris-HCl solution for dissolving the contents therein.

[2] = system: human lung cancer cell (H1975, EGFR L858R/T790M resistant mutation); assay: Proliferation inhibition (SRB) on human lung cancer cell H1975
Text: as §1, §2, §3, §4, §5

[3] = system: human skin cancer cell (A431, wild-type EGFR); assay: Proliferation inhibition (SRB) on human skin cancer cell A431
Text: as §1, §2, §3, §4, §5

SMILES	IC50 ([1]; Homo sapiens, HCC827, 72 h)	IC50 ([2]; Homo sapiens, NCI-H1975, 72 h)	IC50 ([3]; Homo sapiens, A-431, 72 h)	IC50 ([1]; 72 hours)	IC50 ([2]; 72 hours)	IC50 ([3]; 72 hours)
C=CC(=O)Nc1cc(Nc2nccc(-c3cn(C)c4ccccc34)n2)c(OC(C)C)nc1N(C)CCN(C)C [Example 2 compound, N-{2-{[2-(dimethylamino)ethyl](methyl)amino}-6-isopropyloxy-5-{[4-(1-methyl-1H-indol-3-yl)pyrimidin-2-yl]amino}pyridin-3-yl}acrylamide]	4.22 nM	5.54 nM	196 nM			
C=CC(=O)Nc1cc(Nc2ncc(Cl)c(-c3cn(C)c4ccccc34)n2)c(OC(C)C)nc1N(C)CCN(C)C [Example 1 compound, N-{2-{[2-(dimethylamino)ethyl](methyl)amino}-6-isopropyloxy-5-{5-chloro-[4-(1-methyl-1H-indol-3-yl)pyrimidin-2-yl]amino}pyridin-3-yl}acrylamide]				2.15 nM	5.64 nM	140 nM
C=CC(=O)Nc1cc(Nc2ncc(Cl)c(-c3cnc(OC)nc3)n2)c(OC(C)C)nc1N(C)CCN(C)C [Example 22 compound, N-{2-{[2-(dimethylamino)ethyl](methyl)amino}-6-isopropyloxy-5-{[5-chloro-2′-methoxy-(4,5′-bipyrimidine)-2-yl]amino}pyridin-3-yl}acrylamide]	33.3 nM	38 nM	2760 nM			
C=CC(=O)Nc1cc(Nc2ncc(F)c(-c3cn(C)c4ccccc34)n2)c(OC(C)C)nc1N(C)CCN(C)C [Example 11 compound, N-{2-{[2-(dimethylamino)ethyl](methyl)amino}-6-isopropyloxy-5-{5-fluoro-[4-(1-methyl-1H-indol-3-yl)pyrimidin-2-yl]amino}pyridin-3-yl}acrylamide]	2.23 nM	7.22 nM	210 nM			
C=CC(=O)Nc1cc(Nc2ncc(Cl)c(-c3cn(C)c4ncccc34)n2)c(OC(C)C)nc1N(C)CCN(C)C [Example 19 compound, N-{2-{[2-(dimethylamino)ethyl](methyl)amino}-6-isopropyloxy-5-{[5-chloro-4-(1-methyl-1H-pyrrolo[2,3-b]pyridin-3-yl)pyrimidin-2-yl]amino}pyridin-3-yl}acrylamide]	2.62 nM	2.56 nM	209 nM			
